Measurements reported in US20180135134A1, “TARGETED SELECTION OF PATIENTS FOR TREATMENT WITH CORTISTATIN DERIVATIVES” (President and Fellows of Harvard College, priority 2015, published 2018).

What was measured:
[1] = system: MKPL-1; assay: Cellular proliferation assay (CellTiter-Glo); conditions: Homo sapiens, 240 h
Experimental: (§1) All suspension cells were plated (96-well) in triplicate at 5,000-30,000 cells per well for testing (n=3). Viable cell number was estimated after 3, 7 and 10 days by counting viable cells from one vehicle well, generating a cell dilution series, transferring 20 ml per well in duplicate to a 384-well plate, and performing a linear regression to CellTiter-Glo (Promega) response (SPECTRAmax M3, Molecular Devices). Cells from all wells were also fourfold diluted in media and transferred in duplicate for CellTiter-Glo measurement. On days 3 and 7, an equal volume for all wells was split-back with fresh media and compound, such that the resulting cell density for the vehicle well matched the initial seeding density. For days 7 and 10, estimated cell number represents the split-adjusted theoretical cell number. […] For growth assays with inhibitors, n=3 for each concentration with two independent experiments.

[2] = system: ME-1; assay: Cellular proliferation assay (CellTiter-Glo); conditions: Homo sapiens, ME-1, 240 h
Experimental: as §1

[3] = system: NB4; assay: Cellular proliferation assay (CellTiter-Glo); conditions: Homo sapiens, NB-4
Experimental: (§2) All suspension cells were plated (96-well) in triplicate at 5,000-30,000 cells per well for testing (n=3). Viable cell number was estimated after 3, 7 and 10 days by counting viable cells from one vehicle well, generating a cell dilution series, transferring 20 ml per well in duplicate to a 384-well plate, and performing a linear regression to CellTiter-Glo (Promega) response (SPECTRAmax M3, Molecular Devices). Cells from all wells were also fourfold diluted in media and transferred in duplicate for CellTiter-Glo measurement. On days 3 and 7, an equal volume for all wells was split-back with fresh media and compound, such that the resulting cell density for the vehicle well matched the initial seeding density. For days 7 and 10, estimated cell number represents the split-adjusted theoretical cell number. HCT116 were plated (96-well) in triplicate at 250 cells per well. Cells were incubated in the presence of vehicle, 1 μM paclitaxel, or compound. On day 7, CellTiter-Blue (Promega) response was measured and values were normalized to vehicle (100% growth) and paclitaxel (0% growth). For growth assays with inhibitors, n=3 for each concentration with two independent experiments.

[4] = system: U87MG; assay: Soft agar growth assay (Alamar Blue); conditions: Glioma, Inactivating mutations in ETV1, FLL1 and SMC3, 100 nM cortistatin A
Experimental: (§3) For the 62 cell lines 96 well suspension cell culture plates were prepared. 100 μL of the soft agar bottom layer (0.6% final concentration in complete medium) was poured and left to solidify. 50 μL of the soft agar top layer (0.4% final concentration) containing the corresponding cells and cell number were then added on top, solidified and incubated at 37° C., 10% CO2. After the soft agar had solidified, the test items were added at indicated final concentrations into the inner wells of the plate. Subsequently, the assay was incubated in cell culture incubators for 8 to 14 days. Finally, the assay was developed using Alamar Blue and upon 1-5 h of incubation at 37° C. fluorescence intensity was determined (excitation: 560 nm; emission: 590 nm). As low control, cells were treated with 1E-05M Staurosporine (6fold values). As high control, cells were treated with 0.1% DMSO (solvent control, 6 fold values).
(§4) Raw data were converted into percent soft agar growth relative to high controls (solvent 0.1% DMSO) and low controls (1E-05M Staurosporine), which were set to 100% and 0%, respectively.

[5] = system: SET-2; assay: Cellular proliferation assay (CellTiter-Glo); conditions: for GI50: Homo sapiens
Experimental: as §1

[6] = system: MM1.S; assay: Cellular proliferation assay (CellTiter-Glo); conditions: Homo sapiens
Experimental: as §2

[7] = system: MOLM-16; assay: Cellular proliferation assay (CellTiter-Glo); conditions: Homo sapiens
Experimental: as §1

[8] = system: RUNX1 target gene signatures; assay: Gene expression and gene set enrichment analysis (GSEA) in MOLM-14 cells; type: cell-based, human; conditions: 3 h 25 nM CA
Text: Kasumi-1 AML cells contain the RUNX1-RUNX1T1 fusion. A gene set was obtained that measured the genes in Kasumi-1 cells that increase in expression upon knockdown of RUNX1-RUNX1T1 (Ben-Ami, O. et al. Cell Reports 4, 1131-1143 (2013)). Using gene set enrichment analysis (Subramanian, A. et. al. Proc. Natl Acad. Sci. USA 102, 15545-15550 (2005)), this gene set, together with the Broad Molecular Signatures database (C2) was compared to genes differentially expressed in MOLM-14 cells upon treatment with 25 nM cortistatin A for 3 hrs (FIG. 2).
Leukemia cells were plated (12-well) in triplicate at 500,000-800,000 cells per ml and incubated in the presence of vehicle (0.1% DMSO) or CA (25 nM 3 h for K562, MOLM-14 and MV4;11; 10 nM 24 h for MOLM-14; 25 nM 4 h for SET-2, n=3 for each cell line). Cells were then washed twice with cold PBS, and snap frozen. RNA was isolated (RNeasy Plus Microkit, Qiagen or TRIzol, Life Technologies), processed, and, for K562, MOLM-14 and MV4;11, hybridized to the Human U133 Plus 2.0 microarray (Affymetrix). Microarrays were processed with Bioconductor packages affyQCReport for quality control and affy for background correction, summarization, and normalization using rma. Probe sets present in at least 1 sample (based on affy mas5call) and for which the interquartile range was >log2(1.2) were retained for further analysis. The limma Bioconductor package was used for differential expression analysis of CA-treated versus DMSO control samples (Benjamini-Hochberg adjusted P<0.05). SET-2 and HCT 116 gene expression was measured by RNA-seq. SET-2 RNA-seq libraries were prepared and processed using the Ion Torrent workflow. Reads were aligned in two passes, first with rnaStar (v.2.3.0e) then with BWA (v.0.7.5a) for remaining unmapped reads, both using default parameters. Mapped reads were merged and counted using HTSeq (v.0.5.3p3) with -s yes -m intersection-strict. The Bioconductor package DESeq was used for DE analysis (FDR<0.05 and twofold change) and normalization. HCT116 cells were grown to approximately 80% confluence and were treated with either 100 nM CA or DMSO for 3 h (n=3). Cells were then washed twice with cold PBS and scraped into TRIzol reagent (Life Technologies). After collecting the RNA, it was further purified using an RNeasy mini kit (Qiagen) with an on-column DNase I digestion. Libraries for Illumina sequencing were generated via the Illumina TruSEQ stranded mRNA prep kit. Samples were run in a single lane on an Illumina HiSEQ 2000 sequencer with a single read flow cell using 1×50-bp reads and a 6-cycle index read. Reads were mapped to the hgl9 reference genome using Tophat2 v.2.0.6 with custom settings including the setting of—library-type fr—firstrand to appropriately account for the stranded nature of the protocol. HTSeq v.0.6.1 was used to obtain read counts over annotated genes and differentially expressed genes were called by DESeq v.1.10.1 with a padj value of less than 0.01. Counts were normalized for GSEA using the limma voom function. Expression data for the I-BET151 comparison were downloaded from ArrayExpress (https://www.ebi.ac.uk/arrayexpress, accession E-MTAB-774) and processed files used as is. Gene lists were submitted to the DAVID web server (http://david.abcc.ncifcrf.gov) for functional annotation. GSEA version 2.09 was carried out using signal-to-noise on natural values as the metric. Signatures included curated gene sets (C2, v.3) downloaded from the Broad's MSigDB as well as signatures curated from in-house and published data sets.

[9] = system: HEL; assay: Cellular proliferation assay (CellTiter-Glo); conditions: Homo sapiens
Experimental: as §1

[10] = system: SK-N-F1; assay: Soft agar growth assay (Alamar Blue); conditions: Neuroblastoma, 100 nM cortistatin A
Experimental: as §3, §4

[11] = system: UKE-1; assay: Cellular proliferation assay (CellTiter-Glo); conditions: Homo sapiens, UKE1
Experimental: as §1

[12] = system: Caki-2; assay: Soft agar growth assay (Alamar Blue); conditions: clear cell renal cell carcinoma, Loss of function VHL mutation (VHL negative), 100 nM cortistatin A
Experimental: as §3, §4

[13] = system: RS4;11; assay: Cellular proliferation assay (CellTiter-Glo); conditions: Homo sapiens
Experimental: as §2

[14] = system: RUNX1 target genes including CEBPA, IRF8 and NFE2; assay: Gene expression in CA-sensitive cell lines SET-2, MOLM-14 and MV4;11; type: cell-based, human; conditions: SET-2, MOLM-14 and MV4;11 cell lines
Experimental: Leukemia cells were plated (12-well) in triplicate at 500,000-800,000 cells per ml and incubated in the presence of vehicle (0.1% DMSO) or CA (25 nM 3 h for K562, MOLM-14 and MV4;11; 10 nM 24 h for MOLM-14; 25 nM 4 h for SET-2, n=3 for each cell line). Cells were then washed twice with cold PBS, and snap frozen. RNA was isolated (RNeasy Plus Microkit, Qiagen or TRIzol, Life Technologies), processed, and, for K562, MOLM-14 and MV4;11, hybridized to the Human U133 Plus 2.0 microarray (Affymetrix). Microarrays were processed with Bioconductor packages affyQCReport for quality control and affy for background correction, summarization, and normalization using rma. […] SET-2 and HCT 116 gene expression was measured by RNA-seq. […] Reads were aligned in two passes, first with rnaStar (v.2.3.0e) then with BWA (v.0.7.5a) for remaining unmapped reads, both using default parameters. Mapped reads were merged and counted using HTSeq (v.0.5.3p3) with -s yes -m intersection-strict. […] Samples were run in a single lane on an Illumina HiSEQ 2000 sequencer with a single read flow cell using 1×50-bp reads and a 6-cycle index read. Reads were mapped to the hgl9 reference genome using Tophat2 v.2.0.6 with custom settings including the setting of—library-type fr—firstrand to appropriately account for the stranded nature of the protocol. […]

[15] = system: RUNX1; assay: RUNX1 recruitment to genomic loci; type: cell-based, human; conditions: FIG. 11
[16] = system: CDK8/19; conditions: 1,000 nM cortistatin A; FIG. 7B
Experimental: Native kinome profiling was performed with MOLM-14 cell lysate according to the KiNativ Method by ActivX Biosciences. For each peptide quantified, the change in mass spectrometry signal for the treated samples relative to the signal for the control samples was expressed as percentage inhibition.

[17] = system: ALL-SIL; assay: Cellular proliferation assay (CellTiter-Glo); conditions: Homo sapiens
Experimental: as §1

## CN(C)[C@H]1C[C@@]23CC[C@@]4(O2)C(=CC[C@]2(C)[C@@H](c5ccc6ccncc6c5)CC[C@H]24)C=C3[C@@H](O)[C@@H]1O [Cortistatin A, cortistatin A]
[1]
  GI50: 1 nM
[2]
  GI50: 1 nM
[3]
  GI50: > 1000 nM
[4]
  % growth rel. to vehicle: 36%
[5]; SET-2
  GI50: 4 nM
[5]; SET-2, 240 h
  GI50: 4 nM
[5]; dose-dependent, FIG. 4
  proliferation of SET-2 cells (theoretical cell number versus days of treatment): inhibits the proliferation of SET-2 cells
[6]
  GI50: 5 nM
[7]; MOLM16
  GI50: < 1 nM
[7]; MOLM16, 240 h
  GI50: ≤ 1 nM
[8]; signature: Downregulated by RUNX1-RUNX1T1 in CD34+ cord blood cells
  NES: 2.50
[8]; signature: Downregulated by RUNX1 knockdown in Kasumi-1 cells
  NES: 2.21
[8]; signature: Downregulated by RUNX1 knowndown in Jurkat cells
  NES: 2.00
[8]; signature: Upregulated by C/EBPα in Burkitt lymphoma cells
  NES: 2.56
[8]; signature: Upregulated by C/EBPα in K562 cells
  NES: 2.22
[8]; signature: Upregulated by C/EBPα in KCL22 cells
  NES: 2.22
[8]; signature: Upregulated by RUNX1-RUNX1T1 knockdown in Kasumi-1 cells
  NES: 2.78
[9]
  GI50: > 1000 nM
[9]; 240 h
  GI50: > 1000 nM
[10]
  % growth rel. to vehicle: 30%
[11]
  GI50: 7 nM
[12]
  % growth rel. to vehicle: 18%
[13]
  GI50: 3 nM
[14]
  expression of RUNX1 target genes: upregulated RUNX1 target genes
[15]
  RUNX1 recruitment to loci: RUNX1 was recruited to loci upregulated by CA treatment
[16]
  kinase selectivity (native kinase % inhibition): selectively inhibits CDK8/19
[17]
  GI50: 2 nM
